Results taken from patent US7595345B2, “Vitamin D receptor modulators” (Eli Lilly and Company, priority 2003, dated 2009).

Tests used:
[1] = Mouse hypercalcemia assay; assay type: in vivo; details: female DBF mice, oral gavage for 6 days, serum ionized calcium 6 hours after last dosing
Source text: 4. The Mouse Hypercalcemia Assay
(4) Materials and Method for the Mouse Hypercalcemia Assay: […]

rat osteocalcin promoter = assay: OCN (osteocalcin) promoter assay; assay type: cell-based; details: RG-15 (ROS 17/2.8) cells, 48 hr treatment, luciferase
Experimental: 3. The OCN (Osteocalcin) Promoter Assay
The OCN Promoter Assay is an indicator and marker for osteoporosis. Desired assay results are EC50 less than or equal to […]. Preferred assay results are less than […].
(3) Materials and Method for the OCN Promoter Assay:
The activation of osteocalcin by VDR ligands was evaluated in a rat osteoblast-like cell line RG-15 (ROS 17/2.8) stably expressing rat osteocalcin promoter fused with luciferase reporter gene. The stable cell lines were established as reported before (Activation of Osteocalcin Transcription involves interaction of protein kinase A- and Protein kinase C-dependent pathways. Boguslawski, G., Hale, L. V., Yu, X.-P., Miles, R. R., Onyia, J. E., Santerre R. F., Chandrasekhar, S. J. Biol. Chem. 275, 999-1006, 2000). Confluent RG-15 cells maintained in DMEM/F-12 medium (3:1) containing 5% FBS, 300 µg/ml G418 and at 37° C. under 5% CO2/95% air atmosphere were trypsinized (0.25% trypsin) and plated into white opaque 96-well cell culture plates (25000 cells/well). After 24 hr, cells (in DMEM/F-12 medium+2% FBS) were treated with various concentrations of compounds, dissolved in DMSO. The final DMSO concentration remained at 0.01% (v/v). After 48 hr treatment, the medium was removed, cells were lysed with 50 µl of lysis buffer (From Luciferase reporter assay system, Roche Diagnostics, Indianapolis, Ind.) and assayed for luciferase activity using the Luciferase Reporter Gene Assay kit from Boehringer Mannheim as per manufacturer's specifications.

KERtr cells = assay: Keratinocyte proliferation assay; assay type: cell-based; details: Homo sapiens, 72 hr, BrdU incorporation, read-out: Kera. Prolif. IC50
Experimental: 5. The Keratinocyte Proliferation Assay
This Assay is indicative for the treatment of psoriasis.
(5) The Keratinocyte Proliferation Assay:
KERtr cells (Human skin keratinocyte transformed with a retrovirus vector, obtained from ATCC) were plated in 96-well flat-bottomed plates (3000 cells/well) in 100 µl keratinocyte serum free medium supplemented with bovine pituitary extract in the absence of EGF (Life Technologies, Rockville, Md.) and incubated at 37° C. for two days. The cells were treated with various concentrations of VDR ligands (ten-fold serial dilution from 10,000 nM to 0.1 nM in triplicate), dissolved in 100 µl keratinocyte serum free medium supplemented with bovine pituitary extract in the absence of EGF and incubated at 37° C. for 72 hr. BrdU (5-bromo-2′-deoxyuridine) incorporation was analyzed as a measure of DNA replication (Cell proliferation ELISA kit, Roche Diagnostics, Indianapolis, Ind.) and absorbance was measured at 405 nm. Potency values (IC50) values were determined as the concentration (nM) of compound that elicited a half-maximal response.

[2] = test system: IL-10 production in PBMCs; assay: Human IL-10 induction assay; assay type: cell-based; details: PBMC; TPA/PHA treated human PBMCs, IL-10 in supernatant by immunoassay
Source text: 6. The IL-10 Induction Assay
This is an in vitro efficacy assay for psoriasis, abscess and adhesion. Psoriasis involves both keratinocytes and immune cells. IL-10 is a unique cytokine because it is anti-inflammatory and immunosuppressive. This assay tells us whether a VDRM is able to function as an agonist in PBMCs (primary blood mononuclear cells) or not. A lower EC50 value is desirable in this assay since a compound with a lower EC50 value will be a better agonist in PBMCs. […] 7. Other Compound Assay Standards An alternative measure of the efficacy of compounds of the invention for treatment of osteoporosis is a numerical ratio calculated as follows: • Dose Threshold needed to induce hypercalcemia • divided by • Dose Threshold needed for bone efficacy An alternative measure of the efficacy of compounds of the invention for treatment of psoriasis is a numerical ratio calculated as follows: • Dose Threshold needed to induce hypercalcemia • divided by • Dose Threshold needed to induce keratinocyte proliferation For the above ratios, Dose Thresholds are determined from dose response curve data. 8. The CaT1 (Calcium Transport Protein 1) Assay The CaT1 Assay is an indicator for the undesirable condition of hypercalcemia. The higher the EC50 values for a compound the less calcemic it will be in vivo. […] Preferred assay results are greater than 1000 nM. Details of the Assay Methods: (1) Materials and Method for RXR-VDR Heterodimerization Assay: Transfection Method:
(6) Materials and Method for Human IL-10 Induction Assay:
Isolation of peripheral blood mononuclear cells (PBMCs): • A. Collect 50 ml of human blood and dilute with media, RPMI-1640. • B. Prepare sterile tubes with ficol. • C. Add diluted blood to tubes. • D. Centrifuge. • E. Discard the top layer and collect the cells from middle layer. • F. Divide all cells into four tubes and add media. • G. Centrifuge. • H. Aspirate off media and resuspend. • I. Collect all cells • J. Centrifuge. at 1200 rpm for 10 minutes. • K. Resuspend in RPMI-1640 with 2% FBS and count cells
Stimulation of PBMC: • L. Prepare TPA in DMSO. • M. Dissolve PHA in water. • N. Plate TPA/PHA treated PBMCs in well plates. • O. Incubate.
Treatment: • P. Prepare all compound dilutions in plain RPMI-1640 media. • Q. Add diluted compound. • R. Incubate.
Sample Collection and Assay: • S. Remove all the cells by centrifugation and assay the supernatant for IL-10 by immunoassay. • 1) T. Perform IL-10 assay using anti-human IL-10 antibody coated beads, as described by the manufacturer (Linco Research Inc., St. Charles, Mo.).

VDR (pGal4-VDR-LBD) = target: T1, VDR (pGal4-VDR-LBD) (Homo sapiens, UniProt P11473); assay: VDR CTF (Caco-2 cell co-transfection assay); assay type: cell-based; details: Caco-2 cells, Gal4-responsive reporter pFRLuc; surrogate for calcemic activity
T1 construct: the receptor expression vector pGal4-VDR-LBD (10 ng); expressed in transfected cells; host or cells: Caco-2 cells
T1 sequence (P11473 127-423 limits assumed): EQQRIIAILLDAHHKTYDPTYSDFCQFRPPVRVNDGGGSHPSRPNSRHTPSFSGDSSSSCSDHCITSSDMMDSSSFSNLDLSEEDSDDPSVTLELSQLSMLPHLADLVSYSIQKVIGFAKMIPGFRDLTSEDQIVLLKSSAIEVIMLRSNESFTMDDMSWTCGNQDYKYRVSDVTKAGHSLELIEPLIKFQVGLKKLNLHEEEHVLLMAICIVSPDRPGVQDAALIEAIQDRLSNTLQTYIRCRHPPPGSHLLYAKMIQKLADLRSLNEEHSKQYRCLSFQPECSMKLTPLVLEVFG
Experimental: 2. The Caco-2 Cell Co-Transfection Assay:
The Caco-2 cell assay is an indicator for the undesirable condition of hypercalcemia. This co-transfection assay is a surrogate assay for in vivo calcemic activity of VDR ligands. […] Preferred assay results are greater than 1000 nM.
(2) Materials and Method for the Caco-2 Cell Assay:
Caco-2 cells, grown in phenol red free, DMEM (Invitrogen, Carlsbad, Calif.) containing 10% charcoal-stripped FCS (Hyclone, Logan, Utah), were transfected with Fugene 6 reagent (Roche Diagnostics, Indianapolis, Ind.). Cells (5000/well) were plated 18 h before transfection in a 96 well plate. The Cells were transfected with Gal4-responsive reporter pFRLuc (150 ng, Stratagene, La Jolla Calif.) and the receptor expression vector pGal4-VDR-LBD (10 ng), along with Fugene 6 reagent (0.2 μl/well). The DNA-Fugene complex was formed by incubating the mixture for 30 min at room temperature. The cells were transfected in triplicate for 5 h, and treated with various concentrations of VDR ligands (form 0.01 nM to 10,000 nM concentration range) 18 h post-transfection. The luciferase activity was quantified using Steady-Glo reagent kit (Promega, Madison, Wis.) as per manufacturer's specifications.

SMILES | Mouse Hypercal [1] [µg/kg/day] | EC50 (rat osteocalcin promoter) [nM] | EC50 (rat osteocalcin promoter; Rattus norvegicus, 48 h) [nM] | IC50 (KERtr cells) [nM] | IC50 [2] [nM] | EC50 (VDR (pGal4-VDR-LBD)) [nM]
CCC(O)(C#Cc1ccc(C(CC)(CC)c2ccc(C(=O)NC(C)(C)C(=O)O)c(C)c2)cc1C)CC [Ex. 2, 2-(4-{1-Ethyl-1-[4-(3-ethyl-3-hydroxy-pent-1-ynyl)-3-methyl-phenyl]-propyl}-2-methyl-benzoylamino)-2-methyl-propionic acid] | 300 | 1.7 | 1.2 | 21 | 24 | 397
C=C1/C(=C\C=C2/CCC[C@]3(C)[C@@H]([C@H](C)/C=C/[C@@H](O)C4CC4)CC[C@@H]23)C[C@@H](O)C[C@@H]1O [FF, calcipotriol, reference compound] | – | – | – | 103 | 0.5 | –
C=C1/C(=C\C=C2/CCC[C@]3(C)[C@@H]([C@H](C)CCCC(C)(C)O)CC[C@@H]23)C[C@@H](O)C[C@@H]1O [AA, 1α,25-dihydroxyvitamin D3, reference compound] | 0.06 | – | – | – | – | –
CCC(CC)(c1ccc(OCC(=O)C(C)(C)C)c(C)c1)c1ccc(OC[C@H](O)C(C)(C)C)c(C)c1 [EE, reference compound] | 1000 | – | 341 | – | – | –
CCC(CC)(c1ccc(OCC(O)CO)c(C)c1)c1ccc(OCC(O)C(C)(C)C)c(C)c1 (stereo not drawn) [BB, 3-(4-{1-Ethyl-1-[4-(2-hydroxy-3,3-dimethyl-butoxy)-3-methyl-phenyl]-propyl}-2-methyl-phenoxy)-propane-1,2-diol, reference compound] | 20 | – | 8.24 | 10 | 28 | –
CCC(CC)(c1ccc(OCC(=O)C(C)(C)C)c(C)c1)c1ccc(OCC(=O)C(C)(C)C)c(C)c1 [DD, reference compound] | 1000 | – | 31.1 | 1060 | – | –
